What was measured:
Bt549 cells = assay: Microchannel migration device assay, Bt549 cells; assay type: cell-based; details: 10 μM LY294002, 400 μm-long Y-shaped migration channels; control 32±8%
Experimental: (§1) Cell seeding and live cell migration experiments: Cells were grown to continency, trypsinized, and resuspended in serum-free medium at 2×10^6 cells/ml. 50 μl of cell suspension was added to the cell inlet well. Cells were incubated in the device for 5-10 minutes at 37° C. to allow initial cell seeding at the base of “Y” channels. The cell suspension was then removed from the cell inlet port. The device was washed with DPBS before the addition of medium to the inlet ports of the device. In select experiments, PI3K activity was inhibited by the addition of 10 μM LY294002 in the medium through the entire course of migration. The migration chamber was moved to a temperature- and CO2-controlled stage-top live cell incubator (Okolab, Italy) mounted on the motorized stage of an inverted Nikon Eclipse Ti microscope (Nikon, Tokyo, Japan) with automated controls (NIS-Elements, Nikon). Migrating cells were imaged with a 10×-magnification phase contrast objective every 10 minutes for up to 16 hours. Analysis of Cell Migration: Video tiles were exported to Image1 for analysis. All cells that entered the channel were tracked while fully inside the channel and before reaching either end of the channel using the lmageJ MTrackJ plugin at 10 minute intervals. Cells were also dynamically traced with the imageJ polygon ROI capability at 30 minute intervals. Dividing cells were not tracked. […]

MDA-MB-231 cells = assay: Microchannel migration device assay, MDA-MB-231 cells; assay type: cell-based, human
Experimental: Cell seeding and live cell migration experiments: Cells were grown to continency, trypsinized, and resuspended in serum-free medium at 2×10^6 cells/ml. 50 μl of cell suspension was added to the cell inlet well. Cells were incubated in the device for 5-10 minutes at 37° C. to allow initial cell seeding at the base of “Y” channels. The cell suspension was then removed from the cell inlet port. The device was washed with DPBS before the addition of medium to the inlet ports of the device. In select experiments, PI3K activity was inhibited by the addition of 10 μM LY294002 in the medium through the entire course of migration. The migration chamber was moved to a temperature- and CO2-controlled stage-top live cell incubator (Okolab, Italy) mounted on the motorized stage of an inverted Nikon Eclipse Ti microscope (Nikon, Tokyo, Japan) with automated controls (NIS-Elements, Nikon). Migrating cells were imaged with a 10×-magnification phase contrast objective every 10 minutes for up to 16 hours. Analysis of Cell Migration: Video tiles were exported to Image1 for analysis. All cells that entered the channel were tracked while fully inside the channel and before reaching either end of the channel using the lmageJ MTrackJ plugin at 10 minute intervals. Cells were also dynamically traced with the imageJ polygon ROI capability at 30 minute intervals. Dividing cells were not tracked. Cell position data were used to calculate cell speed over each 10 minute interval, and these speeds were averaged to get an overall average speed for each cell. Additionally, the chemotactic index, defined as the cell displacement divided by the total distance travelled by the cell, was calculated. Cell shape data were used to calculate cell circularity and fit elliptical angle using the Measure function in ImageJ Statistical significance was assessed with non-paired Student's t-test. Cells were further defined as migratory or non-migratory. Migratory cells were defined as those cells which reached the bifurcation in the Y-shaped microchannel; all other cells were defined as non-migratory. […]

Hs578t cells = assay: Microchannel migration device assay, Hs578t cells; assay type: cell-based; details: 10 μM LY294002, 400 μm-long Y-shaped migration channels; control 20±7%
Experimental: as §1

In the case of `O=c1cc(N2CCOCC2)oc2c(-c3ccccc3)cccc12` [LY294002], the “percentage of migratory cells” value (Bt549 cells) is reported as 19±1%, the migratory cell population (MDA-MB-231 cells; 10 μM LY294002, 200 μm-long microchannels, control 25%) is reported as 65% and the “ratio of contact guided cells” value (MDA-MB-231 cells; 10 μM LY294002, 200 μm-long microchannels, control 66%) is reported as 93%. The “percentage of migratory cells” value (MDA-MB-231 cells; 10 μM LY294002, 400 μm-long Y-shaped migration channels, control 22±3%) was 34±8% and the “percentage of migratory cells” value (Hs578t cells) was 15±2%.
